Where “and” joins values, the source holds several entries; their conditions need not be identical. Identical values can stand only once. Where a SMILES comes first, the peptide text is derived from it. [ ]: non-standard residue; d: D form. pY = N[C@@H](Cc1ccc(OP(=O)(O)O)cc1)C(=O)O

The record followed here is paper PMC6938330, “Crystal structures of p120RasGAP N-terminal SH2 domain in its apo form and in complex with a p190RhoGAP phosphotyrosine peptide” (PLoS ONE, 2019).

For assay [1], the target named is T1, N-terminal SH2 domain of p120RasGAP (Homo sapiens, UniProt P20936, C236S/C261S).
T1 construct: cDNA of residues 174 through 280 of human p120RasGAP (UniProt ID: P20936); made in house; host or cells: E. coli Rosetta(DE3)
T1 sequence (P20936 174-280 C236S/C261S): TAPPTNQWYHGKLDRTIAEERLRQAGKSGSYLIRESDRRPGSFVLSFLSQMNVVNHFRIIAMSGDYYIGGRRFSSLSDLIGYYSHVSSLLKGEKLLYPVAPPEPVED
Kind of assay: Isothermal titration calorimetry (ITC), wild-type N-SH2. The conditions noted are these: 20mM Tris 7.4, 150mM NaCl, independent binding model. The procedure:
(§1) cDNA of residues 174 through 280 of human p120RasGAP (UniProt ID: P20936) encoding the N-terminal SH2 domain tagged was subcloned into a modified pET28a vector with an N-terminal hexahistidine tag and TEV protease recognition sequence. Two native cysteines, C236 and C261, were mutated to serine to prevent disulfide bridge formation. Following transformation into Rosetta(DE3) cells, a 1L culture was induced overnight at OD600 of 0.6–0.8 and 18°C using 0.2 mM IPTG. Cells were harvested by centrifugation and resuspended in lysis buffer (50 mM HEPES pH 7.3, 500 mM NaCl). Lysis was facilitated by lysozyme addition and three freeze/thaw cycles, prior to sonication and DNAse I addition. Clarified lysate was prepared by centrifugation at 5000 x g at 4°C and incubated with nickel beads (Ni-NTA Agarose, Qiagen) for 1 hr at 4°C to capture hexahistidine-tagged protein. Following washing with 3 column volumes of wash buffer (50 mM HEPES pH 7.3, 500 mM NaCl, 20mM imidazole), TEV protease was added overnight at 4 °C to cleave the SH2 domain protein from the hexahistidine-tag. The next day, flow through containing tag-free SH2 domain protein was collected and the beads were washed with several column volumes of wash buffer to fully remove the cleaved protein from the beads. Size exclusion chromatography (Superdex 75, GE Healthcare) was performed on p120RasGAP N-SH2 in 20 mM Tris pH 7.4 and 150 mM NaCl. Yield was 20 mg/L culture. Protein was concentrated by centrifugal filter (Amicon Ultra, Millipore Sigma).
(§2) A synthetic 13 amino acid peptide of sequence EEENI(p-Tyr)SVPHDST native to p190RhoGAP residues 1100 to 1112 phosphorylated at Tyr-1105, with N-terminal acetylation and C-terminal amidation, was commercially synthesized (GenScript) and re-suspended in sterile-filtered water.
(§3) The N-SH2 protein and pTyr1105 peptide were prepared for ITC by overnight dialysis in a common buffer with a 20mM Tris 7.4, 150mM NaCl composition. Slide-A-Lyzer Dialysis Cassettes with a molecular weight cut-off of 3,500 Da were used for protein dialysis and Micro Float-A-Lyzer Dialysis devices with a 100–500 Da cut-off for peptide dialysis. Samples were retrieved from their cartridges, spun down for 10 minutes at 4°C. Concentrations were measured using a Nanodrop spectrophotometer at 280 nm. To determine peptide concentration, a phosphotyrosine extinction coefficient of 458.6 M^-1cm^-1 at pH 7.4 was used. Two ITC experiments were performed using a Nano-ITC (TA Instruments). Both protein and peptide were degassed for 3 minutes prior to loading. 350 μL of protein were injected into the sample cell. The injection burette was loaded with 52 μL of peptide. 20 injections of 2.5 μL of peptide, each spanning 300 seconds, were performed per ITC run. Results were analyzed using the nano-ITC software, through fitting to an independent binding model.
We conducted isothermal titration calorimetry to assess the interaction between the N-terminal SH2 domain of p120RasGAP and the p190RhoGAP pTyr-1105 peptide. We injected the p190RhoGAP pTyr-1105 peptide at a concentration of 78.5 μM into N-SH2 at a concentration of 15 μM. Averaged over two independent experiments we observe a Kd of 0.3 ± 0.1 μM (Fig 5A).
A general note: In ITC the heat of successive injections is recorded.

Assay [2] concerns R207A mutated N-SH2 (p120RasGAP). Kind of assay: Isothermal titration calorimetry (ITC), R207A mutant N-SH2. The assay is classed as binding, human. Here is the method: (§4) A mutant form, with R207A mutation, was introduced by QuikChange mutagenesis (Agilent) using forward and reverse primers (5'-[…]-3', 5'- […]-3’). Expression and purification were by identical methods as wild type protein. Yield for the mutant was 4 mg/L culture. Both wild type and mutant constructs elute from size exclusion chromatography as monodisperse peaks.
as §2
as §3, with “Two ITC experiments were performed using a Nano-ITC (TA Instruments). Both protein and peptide were degassed for 3 minutes prior to loading. 350 μL of protein were injected into the sample cell. The injection burette was loaded with 52 μL of peptide. 20 injections of 2.5 μL of peptide, each spanning 300 seconds, were performed per ITC run.” left out, “model. […]” for “model.”

The subject of assay [3] is R207A mutant p120RasGAP N-SH2. Kind of assay: Native PAGE gel shift, R207A mutant N-SH2. The assay is classed as binding, human. The following applies: protein 0.08 mM, peptide 0.02 to 0.15 mM (peptide:protein 0.25 to 1.9); on ice 10 min; 50 mM Tris pH 7.4; 4–20% gel, pH 8.3, 200 V 1 h; Coomassie. The procedure:
as §4, §2
A serial dilution series of pTyr-1105 phosphopeptide was performed in dilution buffer (50 mM Tris pH 7.4), and mixed with wild-type or R207A mutant N-terminal SH2 domain protein for a final protein concentration of 0.08 mM and a phosphopeptide concentration ranging from 0.02 mM to 0.15 mM (peptide:protein ratio ranging from 0.25 to 1.9). The protein-peptide mixtures, or protein alone as negative control, were incubated on ice for 10 minutes and then centrifuged for 1 minute at 4 °C. 10 μL of 2X native protein sample buffer (62.5 mM Tris HCL pH 6.8, 40% glycerol, 0.01% bromophenol blue) was then added to all samples. […]
For orientation: Mobility shift assays separate free from complexed probe on a gel.

Assay [4] has as its system wild-type p120RasGAP N-SH2. Kind of assay: Native PAGE gel shift, wild-type N-SH2. The assay is classed as binding, human. The following applies: saturating peptide concentrations; protein 0.08 mM, peptide 0.02 to 0.15 mM (peptide:protein 0.25 to 1.9); on ice 10 min; 50 mM Tris pH 7.4; 4–20% gel, pH 8.3, 200 V 1 h; Coomassie. The procedure:
as §1, with “Size exclusion chromatography (Superdex 75, GE Healthcare) was performed on p120RasGAP N-SH2 in 20 mM Tris pH 7.4 and 150 mM NaCl. Yield was 20 mg/L culture. Protein was concentrated by centrifugal filter (Amicon Ultra, Millipore Sigma).” left out

Assay [5] addresses p190RhoGAP pTyr-1105 peptide pTyr-1105 peptide (Homo sapiens, UniProt Q9NRY4, pTyr1105). Kind of assay: ITC.
The target of assay [6] is T2, p120RasGAP N-terminal SH2 domain (residues 174-280, C236S, C261S) (human, UniProt P20936 174-280, C236S | C261S).
T2 construct: human p120RasGAP (RASA1), residues 174 through 280, the N-terminal SH2 domain; two native cysteines mutated to serine; The His6 tag was removed with TEV protease; also called p120RasGAP N-SH2; N-SH2; source: E. coli Rosetta(DE3), purified (Ni-NTA, TEV cleavage, Superdex 75 SEC); not shown: His6, N-terminal, cleaved
T2 sequence (looked up): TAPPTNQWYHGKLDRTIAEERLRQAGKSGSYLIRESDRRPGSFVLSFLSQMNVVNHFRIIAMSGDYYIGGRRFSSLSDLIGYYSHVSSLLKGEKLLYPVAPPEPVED
Kind of assay: ITC; peptide in the burette injected into N-SH2 in the cell (78.5 μM into 15 μM wild type; 120 μM into 15 μM R207A); 20 mM Tris 7.4, 150 mM NaCl; Nano-ITC, 20 injections of 2.5 μL; independent binding model; two runs. The conditions noted are these: both partners purified.

As a reminder, the Kd is a measure of binding affinity in units of concentration. Consider `CC[C@H](C)[C@H](NC(=O)[C@H](CC(N)=O)NC(=O)[C@H](CCC(=O)O)NC(=O)[C@H](CCC(=O)O)NC(=O)[C@H](CCC(=O)O)NC(C)=O)C(=O)N[C@@H](Cc1ccc(OP(=O)(O)O)cc1)C(=O)N[C@@H](CO)C(=O)N[C@H](C(=O)N1CCC[C@H]1C(=O)N[C@@H](Cc1c[nH]cn1)C(=O)N[C@@H](CC(=O)O)C(=O)N[C@@H](CO)C(=O)N[C@H](C(N)=O)[C@@H](C)O)C(C)C` [p190RhoGAP pTyr-1105 peptide] (Ac-EEENI[pY]SVPHDST-NH2), for which the Kd in assay [1] (averaged over two independent ITC experiments, peptide at 78.5 μM injected into N-SH2 (residues 174-280, C236S/C261S) at 15 μM, 20 injections of 2.5 μL, 300 s each, read-out: Kd (dissociation constant)) is 300 ± 100 nM. In assay [1] (run 1 of two), the TΔS is -8.9 kcal/mol, the ΔG was -8.7 kcal/mol and the ΔH is -17.6 kcal/mol. In assay [1] (run 2 of two), this molecule gave a TΔS of -4.9 kcal/mol, a ΔG of -9.0 kcal/mol and a ΔH of -13.9 kcal/mol. Besides, in assay [2] (R207A mutant, summarising statement of the Conclusions (ITC and native PAGE)), the “interaction upon mutation of the FLVR motif arginine residue” value is reported as “abolishes interaction”. Further, in assay [2] (peptide at 120 μM injected into R207A mutated N-SH2 at 15 μM, 20mM Tris 7.4, 150mM NaCl), the heat of binding result was “do not observe measurable heat”. Further, the “mobility shift in native gel” value in assay [3] is listed as “fails to shift”. Further, in assay [4], the “mobility shift in native gel” value is recorded as “significant increase in its mobility in the gel”.

B1: p120RasGAP N-terminal SH2 (protein)
chain: WYHGKLDRTIAEERLRQAGKSGSYLIRESDRRPGSFVLSFLSQMNVVNHFRIIAMCGDYYIGGRRFSSLSDLIGYYSHVSCLLKGEKLLYPV
In assay [5], B1 had a Kd of 300 nM.

B2: p190RhoGAP pTyr-1105 phosphopeptide EEENI(p-Tyr)SVPHDST (residues 1100-1112) (peptide)
peptide: Ac-EEENI[pY]SVPHDST-NH2
SMILES: CC[C@H](C)[C@H](NC(=O)[C@H](CC(N)=O)NC(=O)[C@H](CCC(=O)O)NC(=O)[C@H](CCC(=O)O)NC(=O)[C@H](CCC(=O)O)NC(C)=O)C(=O)N[C@@H](Cc1ccc(OP(=O)(O)O)cc1)C(=O)N[C@@H](CO)C(=O)N[C@H](C(=O)N1CCC[C@H]1C(=O)N[C@@H](Cc1c[nH]cn1)C(=O)N[C@@H](CC(=O)O)C(=O)N[C@@H](CO)C(=O)N[C@H](C(N)=O)[C@@H](C)O)C(C)C
notes: The sixth residue (Y) is phosphotyrosine; also called pTyr1105 peptide; source: synthetic peptide (GenScript)
Broadly, the stoichiometry N is the number of molecules, sites or subunits per partner or assembly. With B2, in assay [6], the Kd is 240 nM and 430 nM; the dH is -17.6 kcal/mol and -13.9 kcal/mol; the “stoichiometry N” value is 0.724 and 0.63.
